Assay: xn = mol fraction of the nth substance listed
Details: for surface tension liquid-gas: Wilhelmy plate; for viscosity: 101 kPa, Liquid, Concentric cylinders viscometry

CCCCCO [pentan-1-ol] + CN(C)C=O
Details	surface tension liquid-gas, 298.15 K [mN/m]	surface tension liquid-gas, 303.15 K [mN/m]	surface tension liquid-gas, 308.15 K [mN/m]	surface tension liquid-gas, 313.15 K [mN/m]	viscosity, 298.15 K [mPa·s]	viscosity, 303.15 K [mPa·s]	viscosity, 308.15 K [mPa·s]	viscosity, 313.15 K [mPa·s]
x2 = 0	24.55	23.6	22.54	21.94	3.5	3.051	2.664	2.335
x2 = 0.0793	24.71	23.72	22.64	22	2.973	2.585	2.259	1.98
x2 = 0.2866	25.53	24.43	23.31	22.57	1.863	1.608	1.414	1.24
x2 = 0.4261	26.4	25.25	24.11	23.3	1.395	1.205	1.069	0.9427
x2 = 0.5048	27.02	25.85	24.69	23.84	1.241	1.076	0.962	0.8525
x2 = 0.6254	28.21	27.01	25.84	24.94	1.069	0.939	0.8498	0.7611
x2 = 0.6638	28.68	27.48	26.31	25.4	1.021	0.9012	0.8193	0.7366
x2 = 0.7952	30.84	29.66	28.51	27.56	0.9068	0.8182	0.7558	0.6895
x2 = 0.8706	32.34	31.19	30.05	29.08	0.8572	0.797	0.7501	0.6882
x2 = 0.9363	33.8	32.67	31.56	30.58	0.8373	0.783	0.7386	0.6836

— the NIST ThermoML archive (doi:10.1016/j.jct.2012.06.023)
